Here are results for 10 molecules from article PMC6540076 (Drug Design, Development and Therapy, 2019).

The test system of data set [1] is carrageenan-induced paw edema. The data set is described as follows: Carrageenan-induced rat-paw-edema assay. As to conditions: for Potency (%): calculated compared to the reference drug naproxen; for Edema (%): compounds 5 mg/kg orally, naproxen 2.5 mg/kg orally, in DMSO, mean ± SE of six rats. The format is in vivo, rats.
A further data set has as its system tail-withdrawal latency. The data set is described as follows: Tail-flick latency test. The format is in vivo, rats. As to conditions: for Latency (seconds) / Latency: compounds 5 mg/kg orally, naproxen 2.5 mg/kg orally, in DMSO, mean ± SE of six rats; for Potency (%): analgesic potency after 120 minutes compared with the reference drug naproxen. For orientation: Hot-plate and tail-flick tests time the reaction to a heat stimulus.

A further data set concerns tumor-bearing rats. As to conditions: cited from earlier work.
Another data set concerns gastric ulceration. As to conditions: naproxen 2.5 mg/kg orally, tested compounds 5 mg/g orally in DMSO.
The mark [2] stands for this setting: after 1 hour of induced inflammation.
[3] abbreviates: throughout the entire experiment.

Structures are written as SMILES. Marks after values point to notes of the source that are not given here.

Consider `COc1ccc2cc(C(C)C(=O)NC(=S)NC(C)C(=O)O)ccc2c1` (centres unmarked) [Compound 5, 2-(3-(2-(6-methoxynaphthalen-2-yl)propanoyl)thioureido)propanoic acid], for which the “Potency (%)” value is given as 102.5% in data set [1] (1 hour); 64.6% in data set [1] (2 hours); 71.1% in data set [1] (3 hours); 71.7% in data set [1] (4 hours); 55.7% in the data set with tail-withdrawal latency. Moreover, the “Edema (%)” value was 21.2±1.66% in data set [1] (1 hour), 30.4±1.19% in data set [1] (2 hours), 33.7±1.68% in data set [1] (3 hours) and 32.8±1.40% in data set [1] (4 hours). Besides, the “anti-inflammatory activity (in words)” value in data set [1] (setting [2]) was “highest anti-inflammatory activity”. Besides, the “Latency (seconds)” value is 3.9±0.3^b seconds in the data set on tail-withdrawal latency (30 minutes), 3.9±0.4^b seconds with tail-withdrawal latency (60 minutes) and 3.9±0.2^b seconds with tail-withdrawal latency (120 minutes).

For the molecule `COc1ccc2cc(C(C)C(=O)NC(=S)NCCC(=O)O)ccc2c1` (centres unmarked) [Compound 6, 3-(3-(2-(6-methoxynaphthalen-2-yl)propanoyl)thioureido)propanoic acid], the “Potency (%)” value in data set [1] (1 hour) is listed as 67.6%; in data set [1] (2 hours) it was 60.0%; in data set [1] (3 hours), 64.4%; in data set [1] (4 hours) it was 60.3%; in the data set on tail-withdrawal latency, 60.0%. For the same molecule, the “Edema (%)” value stood at 24.6±2.39% in data set [1] (1 hour), 31.4±2.46% in data set [1] (2 hours), 35.1±2.99% in data set [1] (3 hours) and 35.3±3.06% in data set [1] (4 hours). Also, the “anti-inflammatory activity (in words)” value in data set [1] (setting [2]) is reported as “moderate potency”. For the same molecule, in the data set with tail-withdrawal latency (30 minutes), the “Latency” value stood at 4.6 ± 0.3 s. The “Latency (seconds)” value is recorded as 4.0±0.2^b seconds with tail-withdrawal latency (60 minutes) and 4.2±0.3^b seconds in the data set with tail-withdrawal latency (120 minutes).

`COc1ccc2cc(C(C)C(=O)NC(=S)NC(CO)C(=O)O)ccc2c1` (centres unmarked) [Compound 7, 3-hydroxy-2-(3-(2-(6-methoxynaphthalen-2-yl)propanoyl)thioureido)propanoic acid]: the “Potency (%)” value in data set [1] (1 hour) is 73.9%; in data set [1] (2 hours), 73.3%; in data set [1] (3 hours), 89.8%; in data set [1] (4 hours), 85.2%; in the data set with tail-withdrawal latency it was 58.6%. The “Edema (%)” value amounted to 24.0±1.90% in data set [1] (1 hour), 28.4±0.78% in data set [1] (2 hours), 29.7±0.95% in data set [1] (3 hours) and 30.0±0.95% in data set [1] (4 hours). The “anti-inflammatory activity (in words)” value in data set [1] (setting [2]) is reported as “moderate potency”. For the same molecule, the results for the “Latency (seconds)” value in the data set on tail-withdrawal latency (30 minutes), in the data set on tail-withdrawal latency (60 minutes) and with tail-withdrawal latency (120 minutes) were 3.9±0.4^b seconds, 3.6±0.3^b seconds and 4.1±0.2^b seconds, respectively.

With `COc1ccc2cc(C(C)C(=O)NC(=S)NC(Cc3ccc(O)cc3)C(=O)O)ccc2c1` (centres unmarked) [Compound 8, 3-(4-hydroxyphenyl)-2-(3-(2-(6-methoxynaphthalen-2-yl)propanoyl)thioureido)propanoic acid], the “Potency (%)” value in data set [1] (1 hour) was 138.4%; in data set [1] (2 hours), 111.4%; in data set [1] (3 hours), 129.2%; in data set [1] (4 hours), 131.2%; with tail-withdrawal latency it was 84.3%. For the same molecule, the “Edema (%)” value in data set [1] (1 hour) stood at 17.6±1.55%; in data set [1] (2 hours), 19.9±1.50%; in data set [1] (3 hours), 21.5±1.42%; in data set [1] (4 hours), 20.0±2.02%. The “anti-inflammatory activity (in words)” value in data set [1] (setting [2]) and in data set [1] (setting [3]) was “highest anti-inflammatory activity” throughout. Besides, the “anti-inflammatory potency relative to the reference drug” value in data set [1] (compared to naproxen) is recorded as “about 1.4 times”. In addition, the “anti-inflammatory activity relative to naproxen” value in data set [1] (entire experiment, after 4 hours) is given as 1.3 times. For the same molecule, the “Latency (seconds)” value with tail-withdrawal latency (30 minutes) is listed as 5.0±0.2^a seconds; in the data set with tail-withdrawal latency (60 minutes), 4.9±0.3^a,b seconds; in the data set with tail-withdrawal latency (120 minutes) it was 5.9±0.5^a seconds.

On to `COC(=O)C(C)NC(=S)NC(=O)C(C)c1ccc2cc(OC)ccc2c1` (centres unmarked) [Compound 9, Methyl 2-(3-(2-(6-methoxynaphthalen-2-yl)propanoyl)thioureido)propanoate], for which the “Potency (%)” value is 4.7% in data set [1] (1 hour); 11.6% in data set [1] (2 hours); 21.1% in data set [1] (3 hours); 32.3% in data set [1] (4 hours); 57.1% with tail-withdrawal latency. Moreover, the “Edema (%)” value in data set [1] (1 hour) was found to be 30.8±1.09%; in data set [1] (2 hours) it was 42.2±3.50%; in data set [1] (3 hours), 44.2±3.94%; in data set [1] (4 hours), 41.3±2.99%. Besides, the “Latency (seconds)” value is 3.7±0.2^b seconds with tail-withdrawal latency (30 minutes), 3.8±0.3^b seconds in the data set on tail-withdrawal latency (60 minutes) and 4.0±0.3^b seconds in the data set with tail-withdrawal latency (120 minutes).

With `COC(=O)CCNC(=S)NC(=O)C(C)c1ccc2cc(OC)ccc2c1` (centres unmarked) [Compound 10, Methyl 3-(3-(2-(6-methoxynaphthalen-2-yl)propanoyl)thioureido)propanoate], the “Potency (%)” value is listed as 6.3% in data set [1] (1 hour); 9.8% in data set [1] (2 hours); 10.4% in data set [1] (3 hours); 15.9% in data set [1] (4 hours); 81.4% with tail-withdrawal latency. Besides, the “Edema (%)” value stood at 30.7±2.38% in data set [1] (1 hour), 42.6±2.45% in data set [1] (2 hours), 46.4±2.61% in data set [1] (3 hours) and 44.9±3.34% in data set [1] (4 hours). The “Latency (seconds)” value with tail-withdrawal latency (30 minutes) is on record as 3.1±0.3^b seconds; in the data set on tail-withdrawal latency (60 minutes), 4.6±0.4^b seconds; in the data set with tail-withdrawal latency (120 minutes), 5.7±0.2^a,b seconds.

`COC(=O)C(CO)NC(=S)NC(=O)C(C)c1ccc2cc(OC)ccc2c1` (centres unmarked) [Compound 11, Methyl 3-hydroxy-2-(3-(2-(6-methoxynaphthalen-2-yl)propanoyl)thioureido)propanoate]: the “Potency (%)” value in data set [1] (1 hour) was 66.7%; in data set [1] (2 hours), 62.2%; in data set [1] (3 hours), 32.5%; in data set [1] (4 hours), 32.1%; with tail-withdrawal latency, 68.6%. In addition, the “Edema (%)” value in data set [1] (1 hour) came out at 24.7±1.79%; in data set [1] (2 hours), 30.9±2.05%; in data set [1] (3 hours), 41.8±2.81%; in data set [1] (4 hours) it was 41.4±2.59%. Besides, the “anti-inflammatory activity (in words)” value in data set [1] (setting [2]) is “moderate potency”. The “Latency (seconds)” value in the data set on tail-withdrawal latency (30 minutes) is on record as 4.8±0.5^a seconds; in the data set on tail-withdrawal latency (60 minutes) it was 4.8±0.4^b seconds; with tail-withdrawal latency (120 minutes), 4.8±0.2^a,b seconds.

As to `COc1ccc2cc(C(C)C(=O)NC(=S)NCCC(=O)NN)ccc2c1` (centres unmarked) [Compound 14, N-(3-hydrazinyl-3-oxopropylcarbamothioyl)-2-(6-methoxynaphthalen-2-yl)propanamide], the “Potency (%)” value was 40.3% in data set [1] (1 hour); 32.9% in data set [1] (2 hours); 44.9% in data set [1] (3 hours); 26.5% in data set [1] (4 hours); 81.4% in the data set on tail-withdrawal latency. For the same molecule, the “Edema (%)” value is reported as 27.3±0.88% in data set [1] (1 hour), 37.4±3.58% in data set [1] (2 hours), 39.2±2.42% in data set [1] (3 hours) and 42.6±1.61% in data set [1] (4 hours). For the same molecule, the “anti-inflammatory activity (in words)” value in data set [1] (setting [3]) was “lowest anti-inflammatory potency”. Further, in the data set with tail-withdrawal latency (30 minutes), the “Latency” value came out at 6.1 ± 0.4 s. The “Latency (seconds)” value in the data set on tail-withdrawal latency (30 minutes) is 6.1±0.4^a seconds; in the data set on tail-withdrawal latency (60 minutes) it was 5.6±0.2^a seconds; in the data set on tail-withdrawal latency (120 minutes), 5.7±0.3^a,b seconds.

Take `COc1ccc2cc(C(C)C(=O)NC(=S)NC(CO)C(=O)NN)ccc2c1` (centres unmarked) [Compound 15, N-(1-hydrazinyl-3-hydroxy–1-oxopropan-2-yl-carbamothioyl)-2-(6-methoxynaphthalen-2-yl)propanamide]: the “Potency (%)” value is 120.0% in data set [1] (1 hour); 96.8% in data set [1] (2 hours); 88.2% in data set [1] (3 hours); 80.5% in data set [1] (4 hours); 64.3% in the data set with tail-withdrawal latency. In addition, the “Edema (%)” value is on record as 19.5±0.50% in data set [1] (1 hour), 23.2±2.05% in data set [1] (2 hours), 30.1±2.58% in data set [1] (3 hours) and 31.0±1.68% in data set [1] (4 hours). The “anti-inflammatory potency (in words)” value in data set [1] (after 2, 3, and 4 hours of induced inflammation, compared to the reference drug) is given as “moderate potency”. Besides, in data set [1] (setting [2]), the “anti-inflammatory activity (in words)” value is on record as “highest anti-inflammatory activity”. In the data set with tail-withdrawal latency (30 minutes), the “Latency” value is 4.2 ± 0.4 s. In addition, the “Latency (seconds)” value is 3.9±0.2^b seconds in the data set with tail-withdrawal latency (60 minutes) and 4.5±0.3^b seconds in the data set on tail-withdrawal latency (120 minutes).

As to `COc1ccc2cc([C@H](C)C(=O)O)ccc2c1` [Naproxen, reference compound], the “Potency (%)” value (in data set [1] (1 hour); in data set [1] (2 hours); in data set [1] (3 hours); in data set [1] (4 hours); in the data set on tail-withdrawal latency) was 100% each time. The “Edema (%)” value is recorded as 21.5±2.03% in data set [1] (1 hour), 22.5±1.22% in data set [1] (2 hours), 27.6±0.85% in data set [1] (3 hours) and 26.7±1.90% in data set [1] (4 hours). The “Latency (seconds)” value is given as 5.3±0.3^a seconds in the data set on tail-withdrawal latency (30 minutes), 6.2±0.4^a seconds with tail-withdrawal latency (60 minutes) and 7.0±0.4^a seconds with tail-withdrawal latency (120 minutes). Besides, the “reduction of rate of tumor growth” value with tumor-bearing rats is 58%. Also, the “ulcerogenic effect, macroscopic examination of the stomach” value with gastric ulceration is “moderate gastric ulceration”.
